From patent US8586611B2 (priority 2005, dated 2013)

Key:
Assay type in all cases: in vivo
Plasmopara viticola = experiment: Test B: grape downy mildew, spray 24 h after inoculation (disease rating, 100 = 100% disease control); settings: spray 24 h after inoculation, compounds without asterisk (not 40 or 10 ppm)
How it was run: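 This is a curative spray test, applied 24 h after inoculation. Compounds in 50/50 acetone–water with 250 ppm Trem 014 surfactant were sprayed to run-off on P. viticola-infected seedlings, with 200 ppm equating to 500 g/ha. Plants were kept 5 days in a 20 °C growth chamber, then 24 h humid, and scored 0–100 for disease control relative to controls.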

[1] = test system: Pseudoperonospora cubensis; experiment: Test A: cucumber downy mildew, spray the day before inoculation (disease rating, 100 = 100% disease control); settings: spray the day before inoculation, compounds without asterisk (not 40 or 10 ppm)
How it was run: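 Cucumber seedlings were sprayed to run-off with compound suspended in acetone/water containing 250 ppm Trem 014 (200 ppm equated to 500 g/ha), then inoculated with P. cubensis spores the next day. Plants were kept 24 h at 20 °C in saturated humidity, then 6 days at 20 °C, before disease rating relative to controls.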

[2] = test system: Erysiphe graminis f. sp. tritici; experiment: Test E: wheat powdery mildew, spray the day before inoculation (disease rating, 100 = 100% disease control); settings: spray the day before inoculation, compounds without asterisk (not 40 or 10 ppm)
How it was run: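 Protective test: spores of E. graminis f. sp. tritici dusted on wheat seedlings one day after run-off spraying of test suspension (acetone/water with 250 ppm surfactant; 200 ppm = 500 g/ha). Ratings after 7 days in growth chamber at 20° C, 100 = full control, 0 = none, relative to controls.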

Phytophthora infestans = experiment: whole plant or invertebrate; settings: tomato late blight; spray the day before inoculation; compounds without asterisk (not 40 or 10 ppm)
[3] = test system: Pseudoperonospora cubensis; experiment: Test F: cucumber downy mildew, DMSO/acetone/water test suspension, spray the day before inoculation (disease rating, 100 = 100% disease control); settings: DMSO/acetone/water suspension, spray the day before inoculation, compounds without asterisk
How it was run: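 Cucumber seedlings inoculated with spores one day after spraying with the test suspension (4% DMSO in acetone/water 30/70; 250 ppm ≈ 250 g/ha). Kept 24 h in saturated air, then 6 days in a growth chamber, both at 20° C. Scored as % disease control versus untreated (100 = full control).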

Substance	Test B disease rating (100 = 100% disease control, 0 = no disease control) (Plasmopara viticola)	Test A disease rating (100 = 100% disease control, 0 = no disease control) [1]	Test E disease rating (100 = 100% disease control, 0 = no disease control) [2]	Test C disease rating (100 = 100% disease control, 0 = no disease control) (Phytophthora infestans)	Test F disease rating (100 = 100% disease control, 0 = no disease control) [3]
N-(2,3-dihydro-2,2-dimethyl-1H-inden-1-yl)-N-methyl-2-[1-[[5-methyl-3-(trifluoromethyl)-1H-pyrazol-1-yl]acetyl]-4-piperidinyl]-4-thiazolecarboxamide [Compound 222]	99%	100%	21%	99%	100%
N-(2,3-dihydro-2-methyl-1H-inden-1-yl)-N-methyl-2-[1-[[5-methyl-3-(trifluoromethyl)-1H-pyrazol-1-yl]acetyl]-4-piperidinyl]-4-thiazolecarboxamide [Compound 226]	0%	100%	0%	93%	99%
N-methyl-1-[1-[[5-methyl-3-(trifluoromethyl)-1H-pyrazol-1-yl]acetyl]-4-piperidinyl]-N-[(1R)-1,2,3,4-tetrahydro-1-naphthalenyl]-1H-pyrazole-3-carboxamide [Compound 231]	80%	100%	0%	100%	96%
N-methyl-2-[1-[[5-methyl-3-(trifluoromethyl)-1H-pyrazol-1-yl]acetyl]-4-piperidinyl]-N-(1,2,3,4-tetrahydro-4-oxo-1-naphthalenyl)-4-thiazolecarboxamide [Compound 211]	8%	100%	0%	99%	92%
N-methyl-2-[1-[[5-methyl-3-(trifluoromethyl)-1H-pyrazol-1-yl]acetyl]-4-piperidinyl]-N-[(1R)-1,2,3,4-tetrahydro-1-naphthalenyl]-2H-1,2,3-triazole-4-carboxamide [Compound 232]	0%	87%	0%	95%	93%
N-methyl-2-[1-[[5-methyl-3-(trifluoromethyl)-1H-pyrazol-1-yl]acetyl]-4-piperidinyl]-N-[(1R)-1,2,3,4-tetrahydro-1-naphthalenyl]-4-oxazolecarboxamide [Compound 151]	31%	99%	0%	29%	93%
N-methyl-2-[1-[[5-methyl-3-(trifluoromethyl)-1H-pyrazol-1-yl]acetyl]-4-piperidinyl]-N-[(1R)-1,2,3,4-tetrahydro-1-naphthalenyl]-4-thiazolecarbothioamide [Compound 289]	33%	100%	0%	98%	47%
N-methyl-2-[1-[[5-methyl-3-(trifluoromethyl)-1H-pyrazol-1-yl]acetyl]-4-piperidinyl]-N-[(1R)-1-phenylpropyl]-4-thiazolecarboxamide [Compound 117]	67%	100%	50%	96%	86%
